Data on 25 compounds can be found in US11912685B2, “Biphenyl diaryl pyrimidine derivative with aromatic heterocyclic structure” (priority 2021, dated 2024).

One data set has as its system HIV-1-IIIB strain. The data set is described as follows: Anti-HIV activity: protection of HIV-infected MT-4 cells from HIV-induced cytopathy (MTT assay). As to conditions: for SI(IIIB), selection index (CC50/EC50): HIV-1 IIIB, MT-4 cells; for EC50: Human immunodeficiency virus 1, IIIB, MT4. The procedure:
(§1) The test was performed as follows. […] The toxicity test was performed in parallel with the anti-HIV activity test. […] Moreover, a selection index (SI=[…]) was also calculated.
The anti-HIV activity of the compound to be tested was evaluated by the inhibitory effect on the HIV-induced cytopathy in the cell.
Viruses: HIV-1-IIIB strain and HIV-2 ROD strain.
(§2) The compound to be tested was dissolved in DMSO or water and diluted gradiently with phosphate-buffered saline solution. […] 100 μL of a virus dilution at an appropriate concentration was added, and co-cultured with the MT-4 cells at 37° C. for 1 h. Then, the MT-4 cells were collected, washed three times, resuspended with a culture medium with or without the compound to be tested and cultured at 37° C. and 5% CO2 for 7 d. On the third day of the infection, the culture medium was correspondingly replaced with the culture medium with or without the compound to be tested. Each culture process was repeated twice. The HIV-induced cytopathy was monitored daily with a reverse optical microscope. […] Considering that the DMSO may affect the antiviral activity of the compound to be tested, it is necessary to design a blank control using the same concentration of DMSO.

For the next data set, the system named is MT-4 cells. The data set is described as follows: Cytotoxicity in uninfected MT-4 cells (MTT assay). Type of data set: cell-based. The note with it: Mean ± SD, at least three independent experiments. The procedure: as §1, §2
For orientation: Formazan colour is commonly taken as a measure of viable cells.

The conditions of data set [1]: prior art; cited from earlier work.
Data set [2] can be described thus: Cytotoxicity in uninfected MT-4 cells (MTT assay). Type of data set: cell-based. The note with it: human, uninfected MT-4 cells, Mean ± SD, at least three independent experiments. The procedure: as §1, §2

The EC50 is the concentration giving half of the maximal effect. Read a low EC50 as greater potency. For orientation: CC50 means the concentration at which the toxic effect on the cells reaches its halfway point. Take `O=C1Nc2ccc(Cl)cc2[C@@](C#CC2CC2)(C(F)(F)F)O1` [EFV, Efavirenz, reference compound]: in the data set with HIV-1-IIIB strain, the “SI(IIIB), selection index (CC50/EC50)” value was >1600 and the concentration giving a half-maximal response (EC50) amounted to 4 ± 1.5 nM. In addition, in the data set on MT-4 cells, the CC50 is > 6330 nM.

For the compound `Cc1cc(C#N)cc(C)c1Oc1nc(Nc2ccc(C#N)cc2)nc(N)c1Br` [ETR, Etravirine, reference compound], in the data set on HIV-1-IIIB strain, the “SI(IIIB), selection index (CC50/EC50)” value is given as >1159 and the response was half-maximal at 4 ± 0.68 nM (EC50). Moreover, in the data set with MT-4 cells, the CC50 was > 4600 nM. Also, the water solubility in data set [1] was < 1 µg/mL.

`Cc1ccnc2c1NC(=O)c1cccnc1N2C1CC1` [NVP, Nevirapine, reference compound]: the CC50 at 7 d in data set [2] is > 15000 nM.

Take `N#Cc1ccc(Nc2nccc(Nc3c(F)cc(-c4cccnc4)cc3F)n2)cc1` [compound 2]: in the data set on HIV-1-IIIB strain, the “SI(IIIB), selection index (CC50/EC50)” value was 32,698 and the EC50 is 7.4 ± 1.76 nM. In the data set with MT-4 cells, the half-maximal cytotoxic concentration (CC50) came to 242000 ± 42000 nM.

Regarding `N#Cc1ccc(Nc2nccc(Nc3c(F)cc(-c4cncnc4)cc3F)n2)cc1` [compound 3], in the data set on HIV-1-IIIB strain, the “SI(IIIB), selection index (CC50/EC50)” value was 229 and the EC50 was 11.9 ± 3.2 nM. This compound showed a CC50 in the data set on MT-4 cells of 2700 ± 1700 nM.

As for `N#Cc1ccc(Nc2nccc(Nc3c(F)cc(-c4ccco4)cc3F)n2)cc1` [compound 4], in the data set with HIV-1-IIIB strain, the “SI(IIIB), selection index (CC50/EC50)” value was determined as 7910 and the midpoint of the response, the EC50, lay at 2.1 nM. This compound displayed a CC50 with MT-4 cells of 16600 ± 6900 nM.

Regarding `N#Cc1ccc(Nc2nccc(Nc3c(F)cc(-c4ccoc4)cc3F)n2)cc1` [compound 5], in the data set on HIV-1-IIIB strain, the “SI(IIIB), selection index (CC50/EC50)” value came out at 3291 and a half-maximal response (EC50) required 3.2 ± 0.18 nM. In addition, the CC50 in the data set with MT-4 cells was 10600 ± 1800 nM.

Consider `N#Cc1ccc(Nc2nccc(Nc3c(F)cc(-c4cccs4)cc3F)n2)cc1` [compound 6], for which, in the data set on HIV-1-IIIB strain, the “SI(IIIB), selection index (CC50/EC50)” value is recorded as >74,627 and the concentration giving a half-maximal response (EC50) came to 4.1 ± 2 nM. In addition, the cytotoxic concentration (CC50) in the data set on MT-4 cells is > 308000 nM.

Consider `N#Cc1ccc(Nc2nccc(Nc3c(F)cc(-c4ccsc4)cc3F)n2)cc1` [compound 7], for which, in the data set on HIV-1-IIIB strain, the “SI(IIIB), selection index (CC50/EC50)” value is on record as 14032 and the response was half-maximal at 3.9 ± 1.4 nM (EC50). The half-maximal cytotoxic concentration (CC50) in the data set on MT-4 cells is 55400 ± 18700 nM.

`N#Cc1ccc(Nc2nccc(Nc3c(F)cc(-c4cn[nH]c4)cc3F)n2)cc1` [compound 8]: in the data set on HIV-1-IIIB strain, the “SI(IIIB), selection index (CC50/EC50)” value is 298 and the EC50 is 10 ± 6 nM. Moreover, the midpoint of cytotoxicity in the data set with MT-4 cells, the CC50, lay at 3100 ± 1700 nM.

Turning to `N#Cc1ccc(Nc2nccc(Nc3c(F)cc(-c4ccnc(F)c4)cc3F)n2)cc1` [compound 9], in the data set on HIV-1-IIIB strain, the “SI(IIIB), selection index (CC50/EC50)” value came to 1311 and the EC50 came out at 3.8 ± 3.2 nM. For the same compound, the CC50 in the data set on MT-4 cells came out at 5000 ± 900 nM.

As for `N#Cc1ccc(Nc2nccc(Nc3c(F)cc(-c4cc(Cl)nc(Cl)c4)cc3F)n2)cc1` [compound 10], in the data set on HIV-1-IIIB strain, the “SI(IIIB), selection index (CC50/EC50)” value amounted to 97 and the EC50 came to 56 ± 32.6 nM. The CC50 with MT-4 cells was determined as 5400 ± 540 nM.

As for `N#Cc1ccc(Nc2nccc(Nc3c(F)cc(-c4ccnc(Cl)c4Cl)cc3F)n2)cc1` [compound 11], in the data set with HIV-1-IIIB strain, the “SI(IIIB), selection index (CC50/EC50)” value is on record as 3673 and the concentration for a half-maximal effect (EC50) came out at 5.5 ± 0.7 nM. This compound showed a CC50 in the data set with MT-4 cells of 20000 ± 16000 nM.

For the compound `N#Cc1ccc(Nc2nccc(Nc3c(F)cc(-c4coc5ccccc45)cc3F)n2)cc1` [compound 12], in the data set on HIV-1-IIIB strain, the “SI(IIIB), selection index (CC50/EC50)” value came out at 1991 and the EC50 amounted to 44 ± 10.1 nM. In the data set with MT-4 cells, this compound showed a half-maximal cytotoxic concentration (CC50) of 87000 ± 54000 nM.

For `N#Cc1ccc(Nc2nccc(Nc3c(F)cc(-c4csc5ccccc45)cc3F)n2)cc1` [compound 13], in the data set on HIV-1-IIIB strain, the “SI(IIIB), selection index (CC50/EC50)” value turned out to be 132 and a half-maximal response (EC50) required 124 ± 78 nM. The compound also came in with a CC50 with MT-4 cells of 16000 ± 6000 nM.

Turning to `N#Cc1ccc(Nc2nccc(Nc3c(F)cc(-c4ccnc(C#N)c4F)cc3F)n2)cc1` [compound 14], in the data set with HIV-1-IIIB strain, the “SI(IIIB), selection index (CC50/EC50)” value is given as >142,857 and the EC50 worked out at 1.98 ± 0.42 nM. Also, the 50% cytotoxic concentration (CC50) in the data set on MT-4 cells is > 282000 nM.

On to `N#Cc1ccc(Nc2nccc(Nc3c(F)cc(-c4ccncc4F)cc3F)n2)cc1` [compound 15], for which, in the data set with HIV-1-IIIB strain, the “SI(IIIB), selection index (CC50/EC50)” value stood at 2566 and it took 1.3 ± 0.6 nM to reach a half-maximal effect (EC50). In the data set with MT-4 cells, the CC50 worked out at 3300 ± 1500 nM.

For the compound `N#Cc1ccc(Nc2nccc(Nc3c(F)cc(-c4cc(F)nc(F)c4)cc3F)n2)cc1` [compound 16], in the data set with HIV-1-IIIB strain, the “SI(IIIB), selection index (CC50/EC50)” value came out at 1966 and a half-maximal response (EC50) required 5.6 ± 1.5 nM. The same compound returned a CC50 with MT-4 cells of 11000 ± 6800 nM.

Turning to `N#Cc1ccc(Nc2nccc(Nc3c(F)cc(-c4ccnc(F)c4F)cc3F)n2)cc1` [compound 17], in the data set with HIV-1-IIIB strain, the “SI(IIIB), selection index (CC50/EC50)” value is reported as >147,059 and the EC50 was determined as 2 ± 0.48 nM. In addition, in the data set with MT-4 cells, the CC50 is > 286000 nM.

As to `N#Cc1ccc(Nc2nccc(Nc3c(F)cc(-c4ccnc(Cl)c4)cc3F)n2)cc1` [compound 18], in the data set with HIV-1-IIIB strain, the “SI(IIIB), selection index (CC50/EC50)” value was determined as 622 and the EC50 came to 6.8 ± 3.4 nM. Also, half-maximal cytotoxicity in the data set with MT-4 cells (CC50) was put at 4200 ± 450 nM.

Take `N#Cc1ccc(Nc2nccc(Nc3c(F)cc(-c4ccnc(-c5ccnc(Cl)c5)c4)cc3F)n2)cc1` [compound 19]: in the data set on HIV-1-IIIB strain, the “SI(IIIB), selection index (CC50/EC50)” value worked out at 3068 and the EC50 was 16.8 ± 3 nM. Also, in the data set with MT-4 cells, the CC50 was 51000 ± 41000 nM.

Consider `Cc1cc(-c2cc(F)c(Nc3ccnc(Nc4ccc(C#N)cc4)n3)c(F)c2)ccn1` [compound 20], for which, in the data set on HIV-1-IIIB strain, the “SI(IIIB), selection index (CC50/EC50)” value is 777 and the EC50 turned out to be 4.1 ± 1.1 nM. The midpoint of cytotoxicity with MT-4 cells, the CC50, lay at 3200 ± 1100 nM.

Turning to `Cc1cc(-c2cc(F)c(Nc3ccnc(Nc4ccc(C#N)cc4)n3)c(F)c2)cc(C)n1` [compound 21], in the data set on HIV-1-IIIB strain, the “SI(IIIB), selection index (CC50/EC50)” value came to 21 and the EC50 was found to be 56 ± 18 nM. For the same compound, in the data set with MT-4 cells, it took 1200 ± 110 nM to reach half-maximal cytotoxicity (CC50).

Regarding `COc1cc(-c2cc(F)c(Nc3ccnc(Nc4ccc(C#N)cc4)n3)c(F)c2)ccn1` [compound 22], in the data set with HIV-1-IIIB strain, the “SI(IIIB), selection index (CC50/EC50)” value is 501 and the midpoint of the response, the EC50, lay at 13 ± 2.9 nM. In the data set with MT-4 cells, this compound had a CC50 of 6700 ± 980 nM.

In the case of `N#Cc1ccc(Nc2nccc(Nc3c(F)cc(-c4ccc(N)cc4)cc3F)n2)cc1` [compound 23], in the data set with HIV-1-IIIB strain, the “SI(IIIB), selection index (CC50/EC50)” value was >32,895 and a half-maximal response (EC50) required 9.2 ± 3.6 nM. Also, the CC50 in the data set on MT-4 cells is > 303000 nM.
